According to patent publication US6620792B1, “Pharmaceutical compositions containing monosialoganglioside GM1 or derivative thereof suitable for the treatment of parkinson's disease” (Fidia S.p.A., priority 1992, dated 2003):

What was measured:
[1] = tested on: mesencephalic dopaminergic neurons; assay: TOPA neurotoxicity in mesencephalic dopaminergic neuron cultures, TH immunofluorescence; type: cell-based, rat; details: for TH+ cells (% control): counted 24 h later, mean ± S.E.M.
Description: Mesencephalic neuron cultures were prepared according to Dal Toso et al. (Dal Toso et al.: “Development and survival of neurons in dissociated fetal mesencephalic serum-free cell cultures: I. Effects of cell density and of an adult mammalian striatal-derived neuronotrophic factor (SDNF)”, J. Neurosci., 8 (3) 733-745, 1988) from the mesencephalic tegmentum of 14.5-15 days' rat embryos.
Neurons (0.75×10^6) were plated on a poly-L-ornithine substrate in 12-well (25 mm dia. each) clusters.
Cultures were used between the fourth and the sixth day without changing the medium. […]
(§1) 2-hour pretreatment before acute incubation with TOPA;
(§2) cotreatment only with LIGA 20 before acute incubation with TOPA;
(§3) pretreatment with/without cotreatment before (100 μM for 2 h) and/or during (100 μM for 24 h) prolonged incubation with TOPA. TOPA cytotoxicity was determined by evaluating cellular survival, and more precisely:
TH immunofluorescence (specific for tyrosine hydroxylase) in mesencephalic dopaminergic neurons, as described by Berger et al. (Berger B. et al.: “Long-term development of mesencephalic dopaminergic neurons of mouse embryos in dissociated primary cultures: morphological and histochemical characteristics”, Neurosci., 7, 193-205, 1982);
(§4) Cytotoxicity is expressed as per cent cellular survival.
The results of the two tests (in triplicate) were analysed statistically according to Duncan's test.

[2] = tested on: cerebellar granule cells; assay: TOPA neurotoxicity in cerebellar granule cell cultures, MTT assay; type: cell-based; details: for Neuronal survival (%): control = 100%
Description: Granular cell cultures were obtained from 8-day rat cerebella and cultured (3×10^6 cells) on plates coated with poly-L-lysine substrate according to Skaper et al. (Skaper S. D. et al.: “Culture and use of primary and clonal neural cells”, Methods in Neurosciences, Ed. by P. M. Conn, Vol. 2, pp. 17-33, Academic Press, Orlando, 1990).
Twenty-four hours later, cytosine arabinoside (10 μM) was added to inhibit non-neuronal proliferation. Cerebellar granule cells were used 10-12 days later without changing the medium.
Cells were incubated with TOPA either for 40 minutes (100 μM acute exposure) or for 24 h (10 μM prolonged exposure).
Treatment with GM1, AGF2, AGF4 (100 μM) and LIGA 20 (1-30 μm) was carried out as follows:
as §1, §2, §3
MTT colorimetric assay of cerebellar neurons, as described by Mosmann (Mosmann T.: “Rapid colorimetric assay for cellular growth and survival: application to proliferation and cytotoxicity assays”, J. Immunol. Meth., 65, 55-63, 1983).
as §4
The results of the two tests (in triplicate) were analysed statistically according to Duncan's test. A brief description of same is reported below:
In FIG. 3 the dose-dependent protective effect of LIGA20 against TOPA-induced death of cultured cerebellar granule cells is represented. Cells were exposed concurrently to 100 μM TOPA and 1-30 μM LIGA20 or 200 μM GM1 in Locke's solution for 45 minutes (24° C.), washed and returned to their original medium. Survival was assessed 24 h later by the MTT method. Means±S.E.M. (n=9, 3 experiments). TOPA ( ), LIGA 20 ( ), GM1 ( ).
In vitro granule cells at the 11th day were incubated as indicated above. In the 40-minute exposure to TOPA, GM1 (100 μM) was used in 2-h pretreatment only. In the […] exposure to TOPA, GM1 (100 μM) was used either in 2-h pretreatment only or in 2-h pretreatment and in cotreatment with TOPA. The values are expressed with reference to the corresponding control cultures (=100%) and are an average (±S.D.) of two determinations, each being carried out in triplicate.

[3] = tested on: MPTP-treated squirrel monkeys; assay: motor behaviour rating of MPTP-treated squirrel monkeys; type: in vivo
Description: (§5) In vivo experiments with GM1 were carried out on 15 (male or female) squirrel monkeys and 4 cynomolgus monkeys.
(§6) The monkeys were administered MPTP saline solution after being anaesthesized i.m. with ketamine HCl 5 mg/kg, as follows:
2 mg/kg/dose, i.m. (squirrel monkeys).
(§7) MPTP was administered every third day until complete manifestation of parkinsonian motor symptomatology was obtained, i.e. akinesia, lack of responsiveness to stimulation, inability to climb, to feed autonomously, and to groom. Thirty points min. (as will be defined in the explanation of FIG. 1) had to be obtained during the 48-60 hours following the last MPTP administration; then animals in pairs were subdivided at random into two treatment groups, i.e. treatment with GM1 or with saline solution. […]
(§8) In particular, the following functions were recorded: overall activity, ability to climb, locomotion/gait, upper and lower limb movements, detailed motor ability, bradykinesia/akinesia, dyskinesia/dystonia, carriage, tremor, balance, grooming ability, sudden immobility during movements, and ability to feed. […]
(§9) FIGS. 1 and 2 are now being considered in detail. […] Columns represent the average points (±S.D.); normal point is 0, MPTP points are the points recorded after the last MPTP injection but prior to the administration of associated GM1-saline solution. […]

[4] = tested on: MPTP-treated cynomolgus monkeys; assay: motor behaviour rating of MPTP-treated cynomolgus monkeys; type: in vivo; details: GM1 15 mg/kg/day i.m.; p<0.05 vs saline solution
Description: as §5, §6
0.35 mg/kg/dose, i.v. (cynomolgus monkeys)
as §7, §8, §9

monosialoganglioside [GM1]
number of neurons which survived the TOPA-induced toxic insult ([1]; 10 μM GM1 with 1 ng/ml BDNF, compared with saturation concentration (50 ng/ml) of BDNF alone): not significantly different
No. of TH+ cells ([1]; 100 μM compound incubated with TOPA 10 μM for 24 h, average ± S.D., control 244 ± 20): 187 ± 10 (b)
TH+ cells (% control) ([1]; 200 μM GM1 2 h pretreatment, washed, then 100 μM TOPA for 45 minutes): 79.1 ± 4.0 % control
TH+ cells (% control) ([1]; 200 μM GM1 cotreatment with 100 μM TOPA for 45 minutes, no drug 5.2 ± 1.1): 5.6 ± 0.7 % control
effect of association with BDNF in protecting against TOPA-induced neurotoxicity ([1]; ganglioside 1-10 μM with BDNF 1 ng/ml): synergic effect
neuroprotective activity alone against TOPA-induced neurotoxicity ([1]; ganglioside alone at 1-10 μM): no neuroprotective activity of their own
Neuronal survival (%) ([2]; GM1 100 μM 2-h pretreatment and cotreatment, TOPA 10 μM 24-h exposure): 75.4 ± 5.5 (b) %
Neuronal survival (%) ([2]; GM1 100 μM 2-h pretreatment only, TOPA 10 μM 24-h exposure): 57.0 ± 6.5 (a) %
Neuronal survival (%) ([2]; GM1 100 μM 2-h pretreatment only, then TOPA 100 μM 40-minute exposure): 72.4 ± 5.8 (a) %
protection against the acute toxicity of TOPA in cotreatment ([2]; GM1 up to 200 μM, cotreatment with 100 μM TOPA for 45 minutes (FIG. 3)): not active
motor behaviour at the investigation end ([3]; GM1 30 mg/kg/day i.m., p<0.01 vs saline solution): almost normal behaviour
recovered motor behaviour ([3]; GM1 chronic i.m. administration, end of 6-8 weeks' investigation, MPTP monkeys, species not separated (FIG. 1)): 86-89%
motor behaviour at the investigation end [4]: almost normal behaviour
